We go through eight compounds from PMC3693772, “Protein expression, biochemical pharmacology of signal transduction, and relation to intraocular pressure modulation by bradykinin B2 receptors in ciliary muscle” (Molecular Vision, 2013).

Where two headings read alike, the source gives them in different places.

Test [1] deals with CHO-B2 cells. The test is classed as cell-based, Chinese hamster ovary cells, human cloned B2 receptor. To be noted: 1 h at 37 °C; enzyme immunoassay; mean ± SEM, 3 to 6 experiments; read-out: PGF2α production in CHO-B2 cells (EC50).
The subject of test [2] is h-CM cells. The test is classed as cell-based, human. To be noted: 1 h at 37 °C; enzyme immunoassay; mean ± SEM, 3 to 6 experiments; read-out: PGF2α production in h-CM cells (EC50).
Test [3] has as its system CHO-B2 cells (human cloned B2 receptor). The test is classed as cell-based, Chinese hamster ovary cells. Conditions: for EC50: 1 h at 37 °C, enzyme immunoassay, mean ± SEM, 3 to 6 experiments, read-out: Total PGs production in CHO-B2 cells (EC50); for PG production/release by compound alone, CHO-B2 cells: compound on its own.
The subject of test [4] is CHO-B2 cells. Format: cell-based, Chinese hamster ovary cells, human cloned B2 receptor. Conditions: 1 h at 37 °C; enzyme immunoassay; mean ± SEM, 3 to 6 experiments; read-out: PGE2 production in CHO-B2 cells (EC50).
For a further test, the system named is primary h-CM cells. Format: cell-based, human. To be noted: for EC50: 1 h at 37 °C, enzyme immunoassay, mean ± SEM, 3 to 6 experiments, read-out: Total PGs production in h-CM cells (EC50).
Test [5] relates to h-CM cells. Format: cell-based, human. To be noted: 1 h at 37 °C; enzyme immunoassay; mean ± SEM, 3 to 6 experiments; read-out: PGE2 production in h-CM cells (EC50).
The subject of the next test is cynomolgus monkey eyes. Conditions: cabergoline 50 µg topical, ocular hypertensive eyes, nine monkeys, ref Thirty ([30]), cited from earlier work. From the text: Table 4 Effects of topical ocular bradykinin on IOP of Cynomolgus monkey eyes | column: Monkey IOP changes after topical ocular dosing / IOP (mmHg); Monkey IOP changes after topical ocular dosing / IOP change (% of control)

Another test has as its system primary h-TM cells. Format: cell-based, human. Conditions: preliminary data, values rounded-off, read-out: Agonist potency at stimulating [Ca^2+]i mobilization in primary h-TM cells (EC50).
The test system of test [6] is CHO-B2 cells. Conditions: read-out: PGD2 production in CHO-B2 cells (EC50), 1 h at 37 °C, enzyme immunoassay. The method, then:
Measurement of prostaglandins in human ciliary muscle and Chinese hamster ovary cells expressing B2 receptors
This involved stimulating h-CM cells and CHO-B2 cells with various concentrations of test peptides and measuring the release of various PGs in the extracellular medium. The concentration-dependent effects of these peptides on total PGs, and specifically PGE2, PGF2α, and PGD2 release, were studied. Cells were grown as a monolayer in a 24-well plate (precoated with fibronectin) to confluence and subsequently serum-starved overnight before the experiment. On the day of the experiment, just before the drug was added, the wells were aspirated completely, and 990 µl basal medium and 10 µl 100× series of concentrations of the different peptide agonists were added to achieve the desired final concentrations of each compound (e.g., 0.1 nM to 10 µM). […] At the end of the incubation period, the cellular supernatants were collected and stored at −80 °C or used immediately to determine the PG content. Cell supernatants were tested for total PG levels and sub-species of PGs (PGE2, PGF2α, and PGD2) using specific competitive enzyme immunoassays (Cayman Chemical Co., Ann Arbor, MI) as directed in the manufacturer’s recommended protocols using the supplied standards and reagents. The limits of detection for various PGs were as follows: total PGs=29 pg/ml; PGE2=15 pg/ml; PGF2α=9 pg/ml; PGD2=200 pg/ml.

Test [7] has as its system B2-receptor, primary h-CM cells. The test is classed as cell-based, human. The protocol: Functional assay measuring [Ca^2+]i mobilization in cultured human ciliary muscle cells
Accordingly, we isolated h-CM cells and studied BK-induced [Ca^2+]i mobilization in these cells using the Fluorescence Imaging Plate Reader (FLIPR; Molecular Devices, Menlo Park, CA) instrument as previously described. Low passage h-CM cells were seeded at a density of about 20,000 cells/well in a black-wall, 96-well tissue culture plates and grown for 2 days. On the day of the experiment, one vial of FLIPR Calcium Assay Kit dye (Molecular Devices) was resuspended in 50 ml of a FLIPR buffer consisting of Hank’s Balanced Salt Solution (HBSS), 20 mM HEPES, and 2.5 mM probenecid, pH 7.4. Cells were loaded with the calcium-sensitive dye (proprietary to Molecular Devices) by adding an equal volume (50 µl) to each well of the 96-well plate and incubated with dye for 1 h at 23 °C. Then the test compound plate and the cell plate were placed in the FLIPR instrument, and an aliquot (25 μl) of the BK solution (positive control) or the test compound was added to the existing 100 μl dye-loaded cells at a dispensing speed of 50 μl/sec. Fluorescence data were collected in real time over a period of time. Responses were measured as peak fluorescence intensity minus basal and where appropriate are expressed as a percentage of a maximum BK-induced response [Emax %]. When antagonist studies were performed, the latter were incubated with the cells for 15 min before BK was added. When the effects of various cellular signaling inhibitors/treatments were investigated, they were added to the cells 5 min before BK was added. The potencies (EC50 or IC50 values) of agonists and antagonists were determined from concentration-response curves using a sigmoidal-fit, iterative algorithm of a computer program designed to automatically fit the raw data (ActivityBase, IDBS, Surrey, UK). […] Concentration-response curves and other plots for the manuscript were constructed using Origin® software package (Microcal® Software Inc., Northampton, MA).
Figure 3 Concentration-dependent effect of bradykinin (BK) on mobilization of [Ca^2+]i in normal, primary h-CM cells. Fluorescent dye-loaded h-CM cells were exposed to different concentrations of BK and the changes in relative fluorescence units (RFUs), indicating changes in levels of [Ca^2+]i, monitored over time (Figure 3A). The peak responses to various BK concentrations were then used to construct the concentration-response curves. Other BK-related peptides were tested in the same manner and their concentration-response curves plotted (e.g., data from a representative experiment; Figure 3B).

With `CCCC[P+](CCCC)(CCCC)Cc1ccc(NC(=O)[C@H](Cc2ccc3ccccc3c2)NC(=NC2CCCCC2)NC2CCCCC2)cc1.[Cl-]` [(S)-WIN-64338], the EC50 in the test with CHO-B2 cells [1] is above 10 nM; in the test with h-CM cells [2], above 10000 nM; in test [3] it was above 10 nM; in the test with CHO-B2 cells [4], above 10 nM; in the test on primary h-CM cells, above 10000 nM; with h-CM cells [5], above 10000 nM. In addition, the “Effect on BK-induced total PGs production, CHO-B2 cells” value is given as “blocked” in test [3] and “potent antagonism” in test [3] (listed as WIN-64338). Further, the “PG production/release by compound alone, CHO-B2 cells” value is “failed to influence PG production” in [3] and “did not induce PGs release” in test [3] (listed as WIN-64338). Moreover, the “PG production/release by compound alone, h-CM cells” value in the test with primary h-CM cells (compound on its own, listed as WIN-64338) is “did not induce PGs release”. Moreover, the “Effect on BK-induced total PGs production, h-CM cells” value in the test on primary h-CM cells is “blocked”; with primary h-CM cells (listed as WIN-64338), “potent antagonism”.
As for `C=CCN1C[C@H](C(=O)N(CCCN(C)C)C(=O)NCC)C[C@@H]2c3cccc4[nH]cc(c34)C[C@H]21` [Cabergoline, cabergoline], the IOP in the test on cynomolgus monkey eyes (0 h) was 34.7±3.0 mmHg. Further, the “IOP change (% of control)” value is given as 0% with cynomolgus monkey eyes (0 h); -16.0% with cynomolgus monkey eyes (1 h); -30.4% in the test with cynomolgus monkey eyes (3 h); -28.8% in the test with cynomolgus monkey eyes (7 h); -27.3% in the test on cynomolgus monkey eyes (24 h).
`N=C(N)NCCC[C@H](N)C(=O)N1CCC[C@H]1C(=O)N1CCC[C@H]1C(=O)NCC(=O)N[C@@H](Cc1ccccc1)C(=O)N[C@@H](CO)C(=O)N1CCC[C@H]1C(=O)N[C@@H](Cc1ccccc1)C(=O)O` [Des-Arg^9-BK]: the EC50 was 3600 nM in the test with primary h-TM cells; above 100 nM with CHO-B2 cells [1]; above 1000 nM in the test with h-CM cells [2]; above 100 nM in test [3]; above 100 nM in the test with CHO-B2 cells [4]; above 1000 nM with primary h-CM cells. Besides, the EC50 is above 1000 nM with h-CM cells [5] and above 100 nM with CHO-B2 cells [6] (one bound printed).
On to `O=C(O)CN(CCOCCOCCN(CC(=O)O)CC(=O)O)CC(=O)O` [EGTA, ethylene glycol tetraacetic acid], for which the “Effect on BK-induced [Ca^2+]i mobilization” value in test [7] (EGTA 1 mM, 5 min preincubation) is “complete abolition of the response to BK”; in test [7] (EGTA 1–2 mM) it was “totally abolished”; in test [7] (EGTA 1–2 mM, listed as ethylene glycol tetraacetic acid), “abolished”.
Turning to `N=C(N)NCCC[C@H](NC(=O)[C@H](Cc1ccccc1)NC(=O)[C@@H]1CCCN1C(=O)[C@H](CO)NC(=O)[C@H](Cc1ccccc1)NC(=O)CNC(=O)[C@@H]1C[C@@H](O)CN1C(=O)[C@@H]1CCCN1C(=O)[C@@H](N)CCCNC(=N)N)C(=O)O` [Hyp^3-BK], the concentration giving a half-maximal response (EC50) in the test with primary h-TM cells came out at 1 nM; in the test with CHO-B2 cells [1], 0.0593 ± 0.0373 nM; in the test with h-CM cells [2] it was 9.2 ± 5.3 nM; in [3] it was 0.0683 ± 0.0367 nM; in the test with CHO-B2 cells [4] it was 0.0307 ± 0.0185 nM; in the test on primary h-CM cells it was 10.9 ± 6.1 nM. Moreover, the EC50 amounted to 2.2 ± 0.2 nM in test [7] (primary h-CM cells, FLIPR, Calcium Assay Kit dye, pH 7.4, 23 °C dye loading, mean ± SEM, n=3-7, read-out: Agonist potency at stimulating [Ca^2+]i mobilization in primary h-CM cells (EC50)); 10.1 ± 4.2 nM in the test on h-CM cells [5]; 0.0304 nM with CHO-B2 cells [6] (first of two values in cell); 0.0582 nM with CHO-B2 cells [6] (second of two values in cell).
Take `CNCC(=O)N[C@@H](CCCNC(=N)N)C(=O)N1CCC[C@H]1C(=O)N1CCC[C@H]1C(=O)NCC(=O)N[C@@H](Cc1ccccc1)C(=O)N[C@@H](CO)C(=O)N1CCC[C@H]1C(=O)N[C@H](Cc1ccccc1)C(=O)O` [Sar-[D-Phe^9]-Des-Arg^9-BK]: the figures for the EC50 (in test [3]; with primary h-CM cells) were above 1 nM and above 1000 nM, respectively.
For `C/C=C(/C)C(=O)O[C@H]1C(C)=C2[C@H]([C@@H]1OC(=O)CCCCCCC)[C@@](C)(OC(C)=O)C[C@H](OC(=O)CCC)[C@@]1(O)[C@H]2OC(=O)[C@@]1(C)O` [thapsigargin], the “Reduction of BK-mobilized [Ca^2+]i levels vs control cells” value in test [7] (thapsigargin 0.1 or 30 µM preincubation) is recorded as above 50%. The “Effect on response to BK after thapsigargin” value in test [7] (thapsigargin pretreatment) was “blunted but not abolished”. For the same compound, the “Effect on BK-induced [Ca^2+]i rise in presence of EGTA” value in [7] (thapsigargin, 1 mM EGTA included) was “concentration-dependently reduced”.
As for ryanodine, the “Effect on BK-induced [Ca^2+]i levels” value in test [7] (ryanodine 1–30 µM, data not shown) is given as “did not enhance but instead slightly reduced the effect of BK”.

As usually defined, the EC50 is the midpoint of the concentration-response curve.
